Results: US8821908B2, “Mold-resistant construction materials” (Henkel AG & Co. KGaA, priority 2004, dated 2014)

What was measured:
Format in all cases: cell-based
[1] = test system: test fungi envisaged in DIN EN ISO 846 or Aspergillus niger (ATCC 6275) as sole test organism; test: Fungal resistance of cured silicone joint sealant films, test along the lines of DIN EN ISO846 after QUV aging (infestation index); set-up: key to Infestation index: sum of weekly growth ratings (0 = no growth to 5 = fully overgrown)
Procedure: Cured silicone films (approximately 80×60×5 mm) are sprayed alternately for 15 minutes each with a spray solution (2% strength aqueous Texapon NSO solution containing 0.5% Dehydran 1513 defoamer), then irradiated with UV light for 15 minutes, in a QUV accelerated weathering instrument (e.g. QUV-spray model). Per week, the test specimens are exposed to 198 spraying units and 198 UV units. After 4 (792 shower cycles), 8 (1584 shower cycles), and 12 weeks (2376 shower cycles), test specimens are taken for microbiological examination. An unweathered sample is likewise investigated microbiologically.
The fungal resistance of cured joint-sealing compounds is assessed in a method based on DIN EN ISO846: “Determination of the action of microorganisms on plastics (ISO 846:1997 German version EN ISO 846: 1997); (amended).
Test specimens of cured joint-sealing compounds are applied planarly to an agar surface. A fungal suspension is caused to act on the test specimens and the surrounding agar surface. After incubation, an assessment is made of the growth on and around the test specimens.
Test conditions: The following important amendments and additions to the DIN EN ISO 846 are carried out: • (1) The test specimens are tested to DIN EN ISO 846 without pretreatment. Additionally, test specimens are also assessed in the test after pretreatment. This pretreatment (leaching) may take place, for example, by incubation for a number of weeks in a flow-traversed immersion bath with water or by accommodating suitable test specimens in a QUV; • (2) The fungal spore suspension is incubated under relatively harsh, realistic conditions with increased ambient air humidity (approximately 85% relative humidity) in a humid chamber; • (3) The test specimens are incubated on ‘complete nutrient medium’ (cf. DIN EN ISO 846 4.2.1.2 method B), but with ‘wort agar’; • (4) As test organisms use is made either of the test fungi envisaged in DIN EN ISO 846: • Aspergillus niger ATCC 6275 • Penicillium funiculosum ATCC 36839 • Paecilomyces variotii ATCC 18502 • Gliocladium virens ATCC 9645 • Chaetomium globosum ATCC 6205 • or, alternatively, the strain Aspergillus niger (ATCC 6275) as sole test organism.
Evaluation of the growth on the test elements: • 0=no growth visible under microscope viewing • 1=no growth visible with naked eye, but growth clearly visible under the microscope • 2=growth visible with naked eye, up to 25% of the sample surface overgrown • 3=growth visible with naked eye, up to 50% of the sample surface overgrown • 4=considerable growth, over 50% of the sample surface overgrown • 5=severe growth, entire sample surface overgrown
All in all, the specimens are incubated for 18 weeks and inoculated again after 4 and 8 weeks in each case. The individual evaluations are added over this period and reported collectively as the infestation index.
A commercially customary silicone joint sealant (e.g., Dow Corning 3390) is admixed with the actives described and stirred with a stirrer until homogeneity is achieved. Thereafter, films of the sealant are produced and tested as described above.

[2] = test system: Aspergillus niger (DSM1988); test: Sporulation inhibition on wort agar plates
Procedure: The surface of wort agar plates was contaminated with 100 μl in each case of a microbial suspension (10^3 CFU/ml) of Aspergillus niger (DSM1988). Added beforehand to the agar plates were different amounts of active (solutions in ethanol, for final concentrations see table). The plates were incubated at 25° C. for 3 days. Spore formation was assessed visually and the sporulation rate was ascertained in [%]. A growth inhibition or microbicidal effect only occurred for a concentration of 0.05% by weight OPP.

[3] = test system: Candida albicans; test: Hyphal formation and cell growth of Candida albicans
Description: Fucoidin, also known under the name fucosidan or fucoidan, is a polysaccharide from brown algae (Fucus vesiculosa, bladder wrack) which consists principally of sulfated L-fucose in 1,2-α-glycosidic linkage.

[4] = Amount of active added 500 ppm in silicone joint sealant, evaluations (0-5) added over 18 weeks
[5] = Amount of active added 1000 ppm in silicone joint sealant, evaluations added over 18 weeks

## CCCCCCCCn1sc(Cl)c(Cl)c1=O [DCOIT]
[1]; [4]
  Infestation index: 77
[1]; [5]
  Infestation index: 81
[1]; Amount of active added 2000 ppm in silicone joint sealant, evaluations added over 18 weeks
  Infestation index: 78

## CC(C)(C)C(O)(CCc1ccc(Cl)cc1)Cn1cncn1 (stereo not shown) [Tebuconazole, a-(2-(4-chlorophenyl)ethyl)-a-(1,1-dimethylethyl)-1H-1,2,4-triazole-1-ethanol]
[1]; [4]
  Infestation index: 60
[1]; [5]
  Infestation index: 57
[1]; Amount of active added 2500 ppm in silicone joint sealant, evaluations added over 18 weeks
  Infestation index: 37
[1]; Amount of active added 5000 ppm in silicone joint sealant, evaluations added over 18 weeks
  Infestation index: 20
[1]; Amount of active added 10000 ppm in silicone joint sealant, evaluations added over 18 weeks
  Infestation index: 12
[1]; in sealants, not observed with fungicides typically used at present
  dependence of mold prevention on concentration: virtually linear dependence with increasing concentration

## Oc1ccccc1-c1ccccc1 [ortho-phenylphenol]
[2]; Concentration of OPP 0.00001 %, 25° C., 3 days, assessed visually
  Sporulation [%]: 95%
[2]; Concentration of OPP 0.00005 %, 25° C., 3 days
  Sporulation [%]: 95%
[2]; Concentration of OPP 0.0001 %, 25° C., 3 days
  Sporulation [%]: 95%
[2]; Concentration of OPP 0.0005 %, 25° C., 3 days
  Sporulation [%]: 50%
[2]; Concentration of OPP 0.001 %, 25° C., 3 days
  Sporulation [%]: 25%
[2]; Concentration of OPP 0.005 %, 25° C., 3 days
  Sporulation [%]: 0%
[2]; without any growth inhibition activity occurring
  concentration of complete suppression of spore formation relative to growth-inhibiting concentration: fifty times lower
[2]; wort agar, 25° C., 3 days
  concentration at which a growth inhibition or microbicidal effect occurred: 0.05 % by weight
  use concentration at which spore formation was suppressed completely: 0.001 % by weight

## Fucoidin
[3]
  cell growth: unaffected
  hyphal formation: significantly reduced

## ortho-phenylphenol-silicic ester
[2]; Concentration of OPP-silicic ester 0.00001 %, 25° C., 3 days
  Sporulation [%]: 95%
[2]; Concentration of OPP-silicic ester 0.00005 %, 25° C., 3 days
  Sporulation [%]: 95%
[2]; Concentration of OPP-silicic ester 0.0001 %, 25° C., 3 days
  Sporulation [%]: 95%
[2]; Concentration of OPP-silicic ester 0.0005 %, 25° C., 3 days
  Sporulation [%]: 50%
[2]; Concentration of OPP-silicic ester 0.001 %, 25° C., 3 days
  Sporulation [%]: 25%
[2]; Concentration of OPP-silicic ester 0.005 %, 25° C., 3 days
  Sporulation [%]: 0%
[2]; Concentration of OPP-silicic ester 0.01 %, 25° C., 3 days
  Sporulation [%]: 0%
[2]; wort agar, 25° C., 3 days
  use concentration at which spore formation was suppressed completely: 0.005 % by weight
